Experimental data published in patent publication US9156801B2, “2-substituted oleanolic acid derivative, method preparing for same, and application thereof” (HANGZHOU BENSHENG PHARMACEUTICAL CO., LTD., priority 2011, dated 2015).
Values after ≈ are worked out from the molar mass of the structure shown.

What was measured:
[1] = system: Jurkat cell line; assay: leukemia cell growth inhibition, MTT; format: cell-based; details: Homo sapiens, 72 h; for inhibition at 16 µg/mL: 16 μg/mL compound, read-out: IR (cell proliferation inhibition rate)
Description: (§1) Leukemia cell lines: leukemia cell lines: K562/adr (drug-resistant, chronic myeloid leukemia, CML), NB4 (acute promyelocytic leukemia, AML), Kasumi-1 (acute myeloid leukemia M2 type, AML-M2), Jurkat (acute lymphoblastic leukemia, ALL), all of which are donated by Cancer Research Institute of Zhejiang University, China; and H9 (acute lymphoblastic leukemia, ALL), which is purchased from China Center for Type Culture Collection (CCTCC).
(§2) Obtaining 6000 well-growing leukemia cells and inoculating them into wells of a 96-well cell culture plate. The culture medium is the 1640 cell culture medium containing 10% fetal bovine serum. After adding the 2-substituted oleanolic acid derivatives of different concentrations and mixing uniformly, placing the plate in a carbon dioxide cell incubator (5% CO2) at 37° C. and incubated for 72 hours. Then the relative number of viable cells is determined by MTT method. In this experiment, cell proliferation inhibition rate in control group (not treated with any compound) is set as 0%.

[2] = system: NB4 cell line; assay: leukemia cell growth inhibition, MTT; format: cell-based; details: Homo sapiens, NB-4; for inhibition at 16 µg/mL: NB4, 16 μg/mL compound, 72 h, read-out: IR (cell proliferation inhibition rate); for IC50: NB4, 72 h
Description: as §1, §2

[3] = system: K562/adr cell line; assay: leukemia cell growth inhibition, MTT; format: cell-based; details: Homo sapiens, 72 h; for IC50: K562/Adr; for inhibition at 16 µg/mL: K562/adr, 16 μg/mL compound, read-out: IR (cell proliferation inhibition rate)
Description: as §1, §2

[4] = system: Kasumi-1 cell line; assay: leukemia cell growth inhibition, MTT; format: cell-based; details: Homo sapiens; for inhibition at 16 µg/mL: Kasumi-1, 16 μg/mL compound, 72 h, read-out: IR (cell proliferation inhibition rate); for IC50: Kasumi-1, 72 h
Description: as §1, §2

[5] = system: H9 cell line; assay: leukemia cell growth inhibition, MTT; format: cell-based; details: Homo sapiens; for IC50: H9, 72 h; for inhibition at 16 µg/mL: H9, 16 μg/mL compound, 72 h, read-out: IR (cell proliferation inhibition rate)
Description: as §1, §2

[6] = system: RPMI8226 cell line; assay: multiple myeloma cell growth inhibition, MTT; format: cell-based; details: Homo sapiens, RPMI-8226; for inhibition at 16 µg/mL: RPMI8226, 16 μg/mL compound, 72 h, read-out: IR (cell proliferation inhibition rate); for IC50: RPMI8226, 72 h
Experimental: Multiple myeloma cell lines: RPMI8226 (multiple myeloma), purchased from Fuxiang Bio-tech Co. Ltd., Shanghai, China.
Obtaining 6000 well-growing cells as above and inoculating them into wells of a 96-well cell culture plate. The culture medium is the 1640 cell culture medium containing 10% fetal bovine serum. After adding the 2-substituted oleanolic acid derivatives of different concentrations and mixing uniformly, placing the plate in a carbon dioxide cell incubator (5% CO2) at 37° C. and incubated for 72 hours. Then the relative number of viable cells is determined by MTT method. In this experiment, cell proliferation inhibition rate in control group (not treated with any compound) is set as 0%.

[7] = system: PC-3 cell line; assay: solid tumor cell growth inhibition, MTT; format: cell-based; details: Homo sapiens; for IC50: PC-3, 72 h; for inhibition at 16 µg/mL: PC-3, 16 μg/mL compound, 72 h, read-out: IR (cell proliferation inhibition rate)
Experimental: (§3) Hep-2 (laryngeal carcinoma), A549 (human lung cancer), CaES-17 (esophageal cancer cell), PC-3 (prostate cancer), CNE (nasopharyngeal carcinoma cell), and SK-OV-3 (ovarian cancer cell), all of which are purchased from China Center For Type Culture Collection; RKO (human colon adenocarcinoma cell), MGC 803 (human gastric cancer cell), MG63 (osteosarcoma) and U87 MG (malignant glioma cell), all of which are purchased from Fuxiang Bio-tech Co. Ltd., Shanghai, China; PANC-1 (pancreatic cancer), Hep G2 (human liver cancer cell), Becap37 (human breast cancer cell), and Hela (human cervical cancer cell), all of which are donated by Cancer Research Institute of Zhejiang University, China.
(§4) Obtaining 4000 well-growing human solid tumor cells and inoculating them into wells of a 96-well cell culture plate. The culture medium is DMEM High Glucose cell culture medium containing 10% fetal bovine serum. The plate is placed in a carbon dioxide cell incubator (5% CO2) at 37° C. for 24 hours. After adding the 2-substituted oleanolic acid derivatives of different concentrations and mixing uniformly, the plate is placed in a carbon dioxide cell incubator (5% CO2) at 37° C. and incubated for 72 hours. Then the relative number of the living cells is determined by MTT method. In this experiment, the cell proliferation inhibition rate in control group (not treated with any compound) is set as 0%.

[8] = system: A549 cell line; assay: solid tumor cell growth inhibition, MTT; format: cell-based; details: Homo sapiens; for IC50: A549, 72 h; for inhibition at 16 µg/mL: A549, 16 μg/mL compound, 72 h, read-out: IR (cell proliferation inhibition rate)
Experimental: as §3, §4

[9] = system: PANC-1 cell line; assay: solid tumor cell growth inhibition, MTT; format: cell-based; details: Homo sapiens; for IC50: PANC-1, 72 h; for inhibition at 16 µg/mL: PANC-1, 16 μg/mL compound, 72 h, read-out: IR (cell proliferation inhibition rate)
Experimental: as §3, §4

[10] = system: Hep-2 cell line; assay: solid tumor cell growth inhibition, MTT; format: cell-based; details: Homo sapiens; for IC50: HEp-2, 72 h; for inhibition at 16 µg/mL: Hep-2, 16 μg/mL compound, 72 h, read-out: IR (cell proliferation inhibition rate)
Experimental: as §3, §4

[11] = system: MG-63 cell line; assay: solid tumor cell growth inhibition, MTT; format: cell-based; details: Homo sapiens; for IC50: MG-63, 72 h; for inhibition at 16 µg/mL: MG-63, 16 μg/mL compound, 72 h, read-out: IR (cell proliferation inhibition rate)
Experimental: as §3, §4

[12] = system: Becap37 cell line; assay: solid tumor cell growth inhibition, MTT; format: cell-based; details: Homo sapiens; for inhibition at 16 µg/mL: Becap37, 16 μg/mL compound, 72 h, read-out: IR (cell proliferation inhibition rate); for IC50: Becap37, 72 h
Experimental: as §3, §4

[13] = system: U87 MG cell line; assay: solid tumor cell growth inhibition, MTT; format: cell-based; details: Homo sapiens, U-87 MG, 72 h; for inhibition at 16 µg/mL: 16 μg/mL compound, read-out: IR (cell proliferation inhibition rate)
Experimental: as §3, §4

[14] = system: RKO cell line; assay: solid tumor cell growth inhibition, MTT; format: cell-based; details: Homo sapiens, 72 h; for inhibition at 16 µg/mL: 16 μg/mL compound, read-out: IR (cell proliferation inhibition rate)
Experimental: as §3, §4

[15] = system: Hela cell line; assay: solid tumor cell growth inhibition, MTT; format: cell-based; details: Homo sapiens, 72 h; for IC50: HeLa; for inhibition at 16 µg/mL: Hela, 16 μg/mL compound, read-out: IR (cell proliferation inhibition rate)
Experimental: as §3, §4

[16] = system: SK-OV-3 cell line; assay: solid tumor cell growth inhibition, MTT; format: cell-based; details: Homo sapiens; for IC50: SK-OV-3, 72 h; for inhibition at 16 µg/mL: SK-OV-3, 16 μg/mL compound, 72 h, read-out: IR (cell proliferation inhibition rate)
Experimental: as §3, §4

[17] = system: MGC 803 cell line; assay: solid tumor cell growth inhibition, MTT; format: cell-based; details: Homo sapiens; for inhibition at 16 µg/mL: MGC 803, 16 μg/mL compound, 72 h, read-out: IR (cell proliferation inhibition rate); for IC50: MGC 803, 72 h
Experimental: as §3, §4

[18] = system: CNE cell line; assay: solid tumor cell growth inhibition, MTT; format: cell-based; details: Homo sapiens, 72 h; for inhibition at 16 µg/mL: 16 μg/mL compound, read-out: IR (cell proliferation inhibition rate)
Experimental: as §3, §4

[19] = system: CaES-17 cell line; assay: solid tumor cell growth inhibition, MTT; format: cell-based; details: Homo sapiens, CaEs17; for inhibition at 16 µg/mL: CaES-17, 16 μg/mL compound, 72 h, read-out: IR (cell proliferation inhibition rate); for IC50: CaES-17, 72 h
Experimental: as §3, §4

[20] = system: Hep G2 cell line; assay: solid tumor cell growth inhibition, MTT; format: cell-based, human; details: Homo sapiens; for inhibition at 16 µg/mL: HepG2, 72 h, Hep G2, 16 μg/mL compound, 72 h, read-out: IR (cell proliferation inhibition rate); for IC50: HepG2, Hep G2, 72 h
Experimental: as §3, §4

CN(C)CCCNC(=O)C1C[C@@]2(C)C(CC[C@]3(C)C2CC=C2C4CC(C)(C)CC[C@]4(C(=O)O)CC[C@]23C)C(C)(C)C1=O (some centres unmarked) [BS-OA-109]
inhibition at 16 µg/mL [1]: 32.3%
IC50 [1]: > 16 µg/mL
inhibition at 16 µg/mL [2]: 76.6%
IC50 [2]: 10.8 µg/mL (≈ 18.5 µM)
IC50 [3]: 6.8 µg/mL (≈ 11.7 µM)
inhibition at 16 µg/mL [3]: 86.2%
inhibition at 16 µg/mL [4]: 36.2%
IC50 [4]: > 16 µg/mL
IC50 [5]: > 16 µg/mL
inhibition at 16 µg/mL [5]: 39.4%
inhibition at 16 µg/mL [6]: 96%
IC50 [6]: 6.21 µg/mL (≈ 10.7 µM)
IC50 [7]: > 16 µg/mL
inhibition at 16 µg/mL [7]: -5.5%
IC50 [8]: > 16 µg/mL
inhibition at 16 µg/mL [8]: 7.5%
IC50 [9]: > 16 µg/mL
inhibition at 16 µg/mL [9]: 12.9%
IC50 [10]: > 16 µg/mL
inhibition at 16 µg/mL [10]: 11.3%
IC50 [11]: > 16 µg/mL
inhibition at 16 µg/mL [11]: 18.9%
inhibition at 16 µg/mL [12]: 19.7%
IC50 [12]: > 16 µg/mL
inhibition at 16 µg/mL [13]: -3.8%
IC50 [13]: > 16 µg/mL
inhibition at 16 µg/mL [14]: -4.9%
IC50 [14]: > 16 µg/mL
IC50 [15]: > 16 µg/mL
inhibition at 16 µg/mL [15]: 23.6%
IC50 [16]: > 16 µg/mL
inhibition at 16 µg/mL [16]: -13.5%
inhibition at 16 µg/mL [17]: 4.9%
IC50 [17]: > 16 µg/mL
inhibition at 16 µg/mL [18]: 36.5%
IC50 [18]: > 16 µg/mL
inhibition at 16 µg/mL [19]: 4.1%
IC50 [19]: > 16 µg/mL
inhibition at 16 µg/mL [20]: 32.1%
IC50 [20]: > 16 µg/mL

CCN(CC)CCNC(=O)C1C[C@@]2(C)C(CC[C@]3(C)C2CC=C2C4CC(C)(C)CC[C@]4(C(=O)O)CC[C@]23C)C(C)(C)C1=O (some centres unmarked) [BS-OA-106]
inhibition at 16 µg/mL [1]: 43.2%
IC50 [1]: > 16 µg/mL
inhibition at 16 µg/mL [2]: 86.6%
IC50 [2]: 7.32 µg/mL (≈ 12.3 µM)
IC50 [3]: 4.12 µg/mL (≈ 6.9 µM)
inhibition at 16 µg/mL [3]: 98.2%
inhibition at 16 µg/mL [4]: 43%
IC50 [4]: > 16 µg/mL
IC50 [5]: > 16 µg/mL
inhibition at 16 µg/mL [5]: 44.6%
inhibition at 16 µg/mL [6]: 68.3%
IC50 [6]: 12.2 µg/mL (≈ 20.5 µM)
IC50 [7]: > 16 µg/mL
inhibition at 16 µg/mL [7]: -6.4%
IC50 [8]: > 16 µg/mL
inhibition at 16 µg/mL [8]: 31.5%
IC50 [9]: > 16 µg/mL
inhibition at 16 µg/mL [9]: 16.9%
IC50 [10]: > 16 µg/mL
inhibition at 16 µg/mL [10]: 3.8%
IC50 [11]: > 16 µg/mL
inhibition at 16 µg/mL [11]: 4.9%
inhibition at 16 µg/mL [12]: 27.5%
IC50 [12]: > 16 µg/mL
inhibition at 16 µg/mL [13]: 7.2%
IC50 [13]: > 16 µg/mL
inhibition at 16 µg/mL [14]: 5.3%
IC50 [14]: > 16 µg/mL
IC50 [15]: > 16 µg/mL
inhibition at 16 µg/mL [15]: 34.6%
IC50 [16]: > 16 µg/mL
inhibition at 16 µg/mL [16]: -17%
inhibition at 16 µg/mL [17]: 13.4%
IC50 [17]: > 16 µg/mL
inhibition at 16 µg/mL [18]: 44.3%
IC50 [18]: > 16 µg/mL
inhibition at 16 µg/mL [19]: 10%
IC50 [19]: > 16 µg/mL
inhibition at 16 µg/mL [20]: 33.6%
IC50 [20]: > 16 µg/mL
